Measured values from patent publication US8871264B2, “Immediate release tablet formulations” (AstraZeneca AB, priority 2009, dated 2014).
Like-named read-outs stand apart in the source and are kept apart here.

Key:
[1] = phosphate buffer pH 6.8, 37° C., 75 rpm, n=6; for Dissoln. % 10 min: tablets of Example 12, 10 min; for Dissoln. % 20 min: tablets of Example 12, 20 min; for Dissoln. % 30 min: tablets of Example 12, 30 min; for Dissoln. % 45 min: tablets of Example 12, 45 min; for Dissoln. % 75 min: tablets of Example 12, 75 min; for Dissolution % 10 min: tablets of Example 13, 10 min; for Dissolution % 20 min: tablets of Example 13, 20 min; for Dissolution % 30 min: tablets of Example 13, 30 min; for Dissolution % 45 min: tablets of Example 13, 45 min; for Dissoln % 75 min: tablets of Example 13, 75 min
[2] = tested on: type II diabetic patients; conditions: for adjusted mean change in HbA1c from baseline: after 24 weeks; for adjusted mean change in HbA1c from baseline / adjusted mean change in FPG from baseline at Week 24: type 2 diabetes patients; for change in total body weight: at 24 weeks
Protocol: The data represent findings from a randomized, double-blind, placebo-controlled study of 546 individuals with type 2 diabetes whose HbA1c was greater than or equal to 7.0 percent and less than or equal to 10 percent at baseline. […] Patients in all arms also received metformin (greater than or equal to 1500 mg/d). […] Exploratory endpoints included body weight decrease of greater than or equal to 5 percent or greater than or equal to 10 percent as well as body weight percent change from baseline.

[3] = combination of metformin and dapagliflozin, 24 weeks, compared to placebo plus metformin
[4] = dapagliflozin 2.5 mg plus metformin
[5] = dapagliflozin 5 mg plus metformin
[6] = dapagliflozin 10 mg plus metformin

Row | Dissoln. % 10 min [1] | Dissoln. % 20 min [1] | Dissoln. % 30 min [1] | Dissoln. % 45 min [1] | Dissoln. % 75 min [1] | Dissolution % 10 min [1] | Dissolution % 20 min [1] | Dissolution % 30 min [1] | Dissolution % 45 min [1] | Dissoln % 75 min [1] | Compound | other results
1 | 41% | 80% | 97% | 100% | 100% | 41% | 81% | 98% | 100% | 100% | CN(C)C(=N)N=C(N)N [Metformin] | –
2 | 38% | 78% | 96% | 99% | 99% | 37% | 77% | 95% | 97% | 97% | CCOc1ccc(Cc2cc([C@@H]3O[C@H](CO)[C@@H](O)[C@H](O)[C@H]3O)ccc2Cl)cc1 [Dapagliflozin, (2S,3R,4R,5S,6R)-2-(4-chloro-3-(4-ethoxybenzyl)phenyl)-6-(hydroxymethyl)tetrahydro-2H-pyran-3,4,5-triol] | fasting plasma glucose (FPG) levels [2, 3]: reduced; glycosylated hemoglobin levels (HbA1c) [2, 3]: reduced; mean reductions in body weight ([2]; compared to individuals taking placebo, 24 weeks): statistically greater mean reductions; patients achieving weight losses greater than or equal to 5 percent ([2]; compared to placebo, exploratory endpoint, 24 weeks): more patients; adjusted mean change in HbA1c from baseline [2, 4]: −0.67%; change in total body weight [2, 4]: -2.21 kg; adjusted mean change in FPG from baseline at Week 24 [2, 4]: -17.8 mg/dL; adjusted mean change in HbA1c from baseline [2, 5]: −0.70%; change in total body weight [2, 5]: -3.04 kg; adjusted mean change in HbA1c from baseline [2, 6]: −0.84%; change in total body weight [2, 6]: -2.86 kg; adjusted mean change in FPG from baseline at Week 24 [2, 6]: −23.5 mg/dL/dl
